Results: the supplement of paper PMC13380429
± gives the standard deviation of the averaged measurements.

How the values were obtained:
Conditions in all cases: 72 h
Calu-3 [1] = assay: drug sensitivity score (DSS) for viability; higher = more toxic; extreme values may be limits of the assay
Vero E6 [2] = assay: as above
U2OS [3] = assay: as above
Caco-2 [4] = assay: as above
HepG2 [5] = assay: as above
Calu-3 [6] = assay: cell viability relative to DMSO; higher = less toxic
Vero E6 [7] = assay: as above
U2OS [8] = assay: as above
Caco-2 [9] = assay: as above
HepG2 [10] = assay: as above
Calu-3 [11] = assay: relative viability EC50 (midpoint between 100% and the lowest measured viability); higher = less toxic
Vero E6 [12] = assay: as above
U2OS [13] = assay: as above
Caco-2 [14] = assay: as above
HepG2 [15] = assay: as above

Structure (SMILES)	drug sensitivity score (Calu-3 [1])	drug sensitivity score (Vero E6 [2])	drug sensitivity score (U2OS [3])	drug sensitivity score (Caco-2 [4])	drug sensitivity score (HepG2 [5])	cell viability (Calu-3 [6]; 1 nM) [%]	cell viability (Calu-3 [6]; 10 nM) [%]	cell viability (Calu-3 [6]; 100 nM) [%]	cell viability (Calu-3 [6]; 1000 nM) [%]	cell viability (Calu-3 [6]; 10000 nM) [%]	cell viability (Vero E6 [7]; 1 nM) [%]	cell viability (Vero E6 [7]; 10 nM) [%]	cell viability (Vero E6 [7]; 100 nM) [%]	cell viability (Vero E6 [7]; 1000 nM) [%]	cell viability (Vero E6 [7]; 10000 nM) [%]	cell viability (U2OS [8]; 1 nM) [%]	cell viability (U2OS [8]; 10 nM) [%]	cell viability (U2OS [8]; 100 nM) [%]	cell viability (U2OS [8]; 1000 nM) [%]	cell viability (U2OS [8]; 10000 nM) [%]	cell viability (Caco-2 [9]; 1 nM) [%]	cell viability (Caco-2 [9]; 10 nM) [%]	cell viability (Caco-2 [9]; 100 nM) [%]	cell viability (Caco-2 [9]; 1000 nM) [%]	cell viability (Caco-2 [9]; 10000 nM) [%]	cell viability (HepG2 [10]; 1 nM) [%]	cell viability (HepG2 [10]; 10 nM) [%]	cell viability (HepG2 [10]; 100 nM) [%]	cell viability (HepG2 [10]; 1000 nM) [%]	cell viability (HepG2 [10]; 10000 nM) [%]	relative viability EC50 (Calu-3 [11]) [µM]	relative viability EC50 (Vero E6 [12]) [µM]	relative viability EC50 (U2OS [13]) [µM]	relative viability EC50 (Caco-2 [14]) [µM]	relative viability EC50 (HepG2 [15]) [µM]
N[C@H]1C(O)O[C@H](CO)[C@@H](O)[C@@H]1O (mixture of isomers) [glucosamine]	0	0	0	0	0	101	107	97.2	101	105	108	103	101	97.7	105	97.6	99.9	94.2	96.4	95.7	88.8	91.8	95	96.6	100	112	106	109	100	112	> 10	> 10	> 10	> 10	> 10
Cc1onc(O)c1C[C@@H](N)C(=O)O (racemic) [AMPA-(RS)]	0	0	0	0	0	95.7 ± 6.4	98.5 ± 1.5	95.8 ± 5	99.1 ± 3.5	106 ± 12	99 ± 3.2	98.9 ± 1.1	93.8 ± 2.1	97.2 ± 1.3	104 ± 0.78	97.1 ± 1.8	95.6 ± 1.3	98.2 ± 2.3	98.5 ± 3.6	102 ± 2.5	99.7 ± 0.42	89.15 ± 0.071	98.2 ± 3.9	93.2 ± 3.2	93 ± 3.8	92.3 ± 9.6	102 ± 13	96.5 ± 5.2	101 ± 5.9	108 ± 5.2	> 10	> 10	> 10	> 10	> 10
O=C(O)CCC/C=C\C[C@@H]1[C@@H](/C=C/[C@@H](O)COc2cccc(Cl)c2)[C@H](O)C[C@@H]1O (racemic) [cloprostenol-(+/-)]	0	0	0	0	0	110	108	106	95.5	100	99.1	103	105	102	102	103	106	99.9	102	97.6	100	104	96.1	97.7	92.3	98.2	106	104	103	104	> 10	> 10	> 10	> 10	> 10
N#C/C(=C\c1ccc(O)c(O)c1)C(=O)OCCc1cccs1 [2-TEDC]	0	0	0	0	1	91.1	94.2	96.1	99.4	93.9	98.5	97.9	96.7	93.6	102	98.6	101	96.1	99.2	95.2	96.3	102	91.8	101	99.3	93.8	96.1	104	86	91.3	> 10	> 10	> 10	> 10	> 10
C[C@]12CC[C@@H](O)C[C@H]1CC[C@@H]1[C@@H]2CC[C@]2(C)C(=O)CC[C@@H]12 [3-alpha-hydroxy-5-beta-androstan-17-one]	0	0	0	0.233 ± 0.4	0.233 ± 0.4	99.6 ± 4.8	97.4 ± 4	96.1 ± 3.2	97.8 ± 6.8	101 ± 3.2	99.8 ± 2.9	101 ± 1.3	103 ± 3.8	103 ± 2.3	94.3 ± 1.5	102 ± 2.1	97.8 ± 1.6	102 ± 2.6	98.6 ± 2.8	99.9 ± 3.2	97.8 ± 5	104 ± 14	97.6 ± 4.1	98.8 ± 3.4	92.9 ± 15	101 ± 8.8	96.6 ± 5.6	102 ± 5.1	104 ± 7.5	87.4 ± 9.7	> 10	> 10	> 10	> 10	> 10
O=C(O)C(=O)CBr [3-bromopyruvate]	0	0	0	0	0	102	98	105	98.9	94.2	96.7	96.6	96.9	96.7	92.8	97.7	99.4	98	102	104	95.5	97.1	96.5	97.2	97.9	104	92.1	100	99.7	101	> 10	> 10	> 10	> 10	> 10
CCCN[C@@H]1CCc2c(OC)cccc2[C@@H]1C [AJ76-(+)]	0	0	0	0	0	100	95.9	96.8	96	114	97.8	104	96.6	99.6	91.3	102	105	95.7	95.9	98.8	104	97.8	96.4	86.8	96.7	88.5	100	103	103	94	> 10	> 10	> 10	> 10	> 10
COc1cnc(-c2ccc(Cn3c(CC(C)(C)C(=O)O)c(SC(C)(C)C)c4cc(OC[C@@H]5Cc6ccccc6N5C(C)=O)ccc43)cc2)nc1 [AM679]	0	0	0	0	0	101	95.4	101	109	107	114	105	106	99.9	128	102	99.8	99.7	100	98.1	102	94	99	97	92.4	103	104	101	102	93.4	> 10	> 10	> 10	> 10	> 10
Cc1nc2cnc3ccc(C#Cc4cccnc4)cc3c2n1-c1ccc(C(C)(C)C#N)cc1 [BAG-956]	16.3	10.8	15.8	15.3	7.9	92.7	96.2	79	27.7	30.2	104	103	97.5	42.6	35.3	97.4	101	88.8	24.9	23.8	97.8	101	79.7	33.5	33.3	104	103	93.3	62.3	41.4	0.144	0.41	0.202	0.139	0.604
CC(C)n1c(=O)n(C(=O)N[C@H]2C[C@H]3CC[C@@H](C2)N3C)c2ccccc21 [BIMU-8]	0	0	0	0	0	96.4	105	96.3	92.3	93.9	105	99.6	99.6	98.9	94.7	102	103	99.1	101	99.1	99	105	98.1	102	96.9	93.2	95.2	90.5	93.2	97	> 10	> 10	> 10	> 10	> 10
CN1C(=O)N(c2cc(Cl)cc(Cl)c2)C(=O)[C@@]1(C)Cc1ccc(Br)cc1 [BIRT-377]	0	0	0	0.3	0	98.4	92.8	91.1	105	92.7	98.7	96.8	104	95.3	101	98.1	100	95.2	99.2	88.8	101	98	97.9	102	83.4	105	101	104	86.6	103	> 10	> 10	> 10	> 10	> 10
CC(C)(C)c1ccc2cc(C#N)c(C#N)cc2c1 [BRD9876]	0.2	0	0	0.1	0	103	100	90.2	95.8	85.9	98.5	104	99.2	99.4	97.8	101	106	95.6	99.8	94.9	99	98.6	102	96	89	97.7	98.8	90.7	89.9	97.6	> 10	> 10	> 10	> 10	> 10
CC1=NN(c2ccc(C(=O)O)cc2)C(=O)C1=Cc1ccc(-c2cc(C)c(C)cc2[N+](=O)[O-])o1 [C646]	0.4	0	0	0	0	106	98.1	89.3	89.6	98.9	97.3	102	100	100	99	102	95.6	98.8	94.9	92.9	87.3	90.5	101	94	98.1	90	102	92.5	93.7	90.5	> 10	> 10	> 10	> 10	> 10
Nc1nc(-c2ccc(Cl)c(Cl)c2)c(-c2ccncc2)s1 [CGH2466]	0	0	0	0	0	109	100	107	95.7	107	87.1	95.3	100	93.9	93.9	96.5	99.9	96.3	100	90.1	91.8	86.1	102	99.7	95.9	96.5	104	117	106	112	> 10	> 10	> 10	> 10	> 10
